Data from ChEMBL document CHEMBL1201862, “PubChem BioAssay data set” (2004).
Active and inactive are the calls of the source.

Legend:
[1] = biological target: Glyceraldehyde-3-phosphate dehydrogenase (Homo sapiens, UniProt P04406)
Bcl-2-like protein 1 = Bcl-2-like protein 1 (Homo sapiens, UniProt Q07817); test: BCL-XL inhibitors, dose response, selectivity assay for MCL1 inhibitor project, biochemical, fluorescence polarization, 1536-well (AID 2218)
[2] = biological target: T1, Dual specificity protein phosphatase 6 (Rattus norvegicus, UniProt Q64346); test: MKP-3 phosphatase inhibitors, primary screen, biochemical, rat enzyme, in vitro (AID 425)
T1 sequence (Q64346 whole entry): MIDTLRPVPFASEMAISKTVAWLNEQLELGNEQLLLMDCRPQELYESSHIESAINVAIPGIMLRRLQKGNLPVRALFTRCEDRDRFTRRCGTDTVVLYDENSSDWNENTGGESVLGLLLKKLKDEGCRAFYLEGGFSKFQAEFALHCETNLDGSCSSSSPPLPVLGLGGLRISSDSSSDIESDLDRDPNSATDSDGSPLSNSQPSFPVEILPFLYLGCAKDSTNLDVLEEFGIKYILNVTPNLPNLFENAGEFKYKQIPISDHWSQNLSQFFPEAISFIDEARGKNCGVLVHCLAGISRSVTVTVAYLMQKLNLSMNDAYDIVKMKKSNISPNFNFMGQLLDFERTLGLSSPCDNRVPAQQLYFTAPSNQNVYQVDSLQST

Genome polyprotein = Genome polyprotein (Hepatitis C virus, UniProt Q2Q167); test: HCV core protein dimerization inhibitors, dose response, biochemical, TR-FRET (AID 2159); set-up: species or system Hepacivirus hominis;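 also: blocks dimerization of HCV core protein measured by TR-FRET between tagged core106 pairs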
Sequence of Genome polyprotein (Q2Q167 whole entry): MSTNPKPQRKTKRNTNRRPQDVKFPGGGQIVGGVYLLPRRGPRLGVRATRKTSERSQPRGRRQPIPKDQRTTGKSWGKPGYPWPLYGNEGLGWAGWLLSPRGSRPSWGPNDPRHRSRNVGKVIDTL

[3] = biological target: T2, Tyrosine-protein phosphatase non-receptor type 7 (Homo sapiens, UniProt P35236); format: functional
T2 sequence (P35236 whole entry): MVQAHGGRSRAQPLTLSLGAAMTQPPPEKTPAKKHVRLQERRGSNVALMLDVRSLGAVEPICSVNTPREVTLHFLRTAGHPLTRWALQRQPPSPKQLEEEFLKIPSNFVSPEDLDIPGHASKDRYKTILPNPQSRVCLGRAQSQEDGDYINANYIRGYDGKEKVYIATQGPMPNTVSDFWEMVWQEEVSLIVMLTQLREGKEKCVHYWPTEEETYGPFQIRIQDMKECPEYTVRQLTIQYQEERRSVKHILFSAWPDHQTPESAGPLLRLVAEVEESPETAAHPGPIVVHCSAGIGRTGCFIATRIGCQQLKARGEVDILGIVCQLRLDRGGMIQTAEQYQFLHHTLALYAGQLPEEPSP

[4] = biological target: Eukaryotic translation initiation factor 4E (Mus musculus, UniProt P63073); test: eIF4E–eIF4G protein interaction inhibitors, dose response, biochemical, TR-FRET (AID 855); format: functional;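 also: potency for disrupting eIF4E binding to eIF4GI seen as loss of FRET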
Sequence of Eukaryotic translation initiation factor 4E (P63073 whole entry): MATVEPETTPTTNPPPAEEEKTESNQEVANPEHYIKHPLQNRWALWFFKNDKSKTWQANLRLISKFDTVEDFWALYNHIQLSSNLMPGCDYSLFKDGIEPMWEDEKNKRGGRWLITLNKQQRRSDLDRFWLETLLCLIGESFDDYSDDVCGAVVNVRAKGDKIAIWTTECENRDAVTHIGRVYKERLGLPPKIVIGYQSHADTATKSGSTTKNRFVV

[5] = biological target: T1, Dual specificity protein phosphatase 6
[6] = biological target: Induced myeloid leukemia cell differentiation protein Mcl-1 (Homo sapiens, UniProt Q07820); test: MCL1-BIM BH3 interaction inhibitors, dose response, biochemical, fluorescence polarization, BIM-BH3 peptide, 1536-well (AID 2217)
Sequence of Induced myeloid leukemia cell differentiation protein Mcl-1 (Q07820 whole entry): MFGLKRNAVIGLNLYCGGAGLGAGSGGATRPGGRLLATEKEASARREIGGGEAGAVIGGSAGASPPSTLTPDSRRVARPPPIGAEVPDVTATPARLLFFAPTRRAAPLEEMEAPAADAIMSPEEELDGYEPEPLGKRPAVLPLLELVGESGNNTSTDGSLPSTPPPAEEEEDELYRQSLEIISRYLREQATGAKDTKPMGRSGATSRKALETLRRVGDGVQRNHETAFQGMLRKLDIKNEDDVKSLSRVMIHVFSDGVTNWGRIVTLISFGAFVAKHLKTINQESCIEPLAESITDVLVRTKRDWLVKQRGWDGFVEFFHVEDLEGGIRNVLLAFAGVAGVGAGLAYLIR

[7] = biological target: T1, Dual specificity protein phosphatase 6; format: functional
[8] = HEp-2 cell cytotoxicity, dose response, cytotoxicity control for RSV inhibitor project, HTS (AID 2410); format: functional; details: human respiratory syncytial virus
[9] = biological target: Sphingosine 1-phosphate receptor 2 (Homo sapiens, UniProt O95136); test: Dose Response Cell Based Assay for Agonists of the S1P2 Receptor of Purchased Analogues. [Related pubchem assays: 729, 843, 854, 736 ]; format: functional
Sequence of Sphingosine 1-phosphate receptor 2 (O95136 whole entry): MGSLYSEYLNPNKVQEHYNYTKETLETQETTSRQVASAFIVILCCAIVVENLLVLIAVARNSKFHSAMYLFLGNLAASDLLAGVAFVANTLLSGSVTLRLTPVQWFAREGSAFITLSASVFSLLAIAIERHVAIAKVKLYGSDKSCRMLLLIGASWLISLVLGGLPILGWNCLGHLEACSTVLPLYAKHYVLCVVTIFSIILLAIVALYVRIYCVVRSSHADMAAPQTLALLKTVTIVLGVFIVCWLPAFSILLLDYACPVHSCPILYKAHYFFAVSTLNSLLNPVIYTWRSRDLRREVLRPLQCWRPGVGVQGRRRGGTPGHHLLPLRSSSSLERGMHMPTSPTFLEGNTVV

Ion channel NompC = Ion channel NompC (Danio rerio, UniProt Q7T1G6); test: Fluorescence counterscreen assay for TRPML3 agonists: dose response cell-based high-throughput screening assay to identify agonists of the transient receptor potential channel N1 (TRPN1). [Related pubchem assays: 1526, 1424, 1448 ]; format: functional
Sequence of Ion channel NompC (Q7T1G6 whole entry): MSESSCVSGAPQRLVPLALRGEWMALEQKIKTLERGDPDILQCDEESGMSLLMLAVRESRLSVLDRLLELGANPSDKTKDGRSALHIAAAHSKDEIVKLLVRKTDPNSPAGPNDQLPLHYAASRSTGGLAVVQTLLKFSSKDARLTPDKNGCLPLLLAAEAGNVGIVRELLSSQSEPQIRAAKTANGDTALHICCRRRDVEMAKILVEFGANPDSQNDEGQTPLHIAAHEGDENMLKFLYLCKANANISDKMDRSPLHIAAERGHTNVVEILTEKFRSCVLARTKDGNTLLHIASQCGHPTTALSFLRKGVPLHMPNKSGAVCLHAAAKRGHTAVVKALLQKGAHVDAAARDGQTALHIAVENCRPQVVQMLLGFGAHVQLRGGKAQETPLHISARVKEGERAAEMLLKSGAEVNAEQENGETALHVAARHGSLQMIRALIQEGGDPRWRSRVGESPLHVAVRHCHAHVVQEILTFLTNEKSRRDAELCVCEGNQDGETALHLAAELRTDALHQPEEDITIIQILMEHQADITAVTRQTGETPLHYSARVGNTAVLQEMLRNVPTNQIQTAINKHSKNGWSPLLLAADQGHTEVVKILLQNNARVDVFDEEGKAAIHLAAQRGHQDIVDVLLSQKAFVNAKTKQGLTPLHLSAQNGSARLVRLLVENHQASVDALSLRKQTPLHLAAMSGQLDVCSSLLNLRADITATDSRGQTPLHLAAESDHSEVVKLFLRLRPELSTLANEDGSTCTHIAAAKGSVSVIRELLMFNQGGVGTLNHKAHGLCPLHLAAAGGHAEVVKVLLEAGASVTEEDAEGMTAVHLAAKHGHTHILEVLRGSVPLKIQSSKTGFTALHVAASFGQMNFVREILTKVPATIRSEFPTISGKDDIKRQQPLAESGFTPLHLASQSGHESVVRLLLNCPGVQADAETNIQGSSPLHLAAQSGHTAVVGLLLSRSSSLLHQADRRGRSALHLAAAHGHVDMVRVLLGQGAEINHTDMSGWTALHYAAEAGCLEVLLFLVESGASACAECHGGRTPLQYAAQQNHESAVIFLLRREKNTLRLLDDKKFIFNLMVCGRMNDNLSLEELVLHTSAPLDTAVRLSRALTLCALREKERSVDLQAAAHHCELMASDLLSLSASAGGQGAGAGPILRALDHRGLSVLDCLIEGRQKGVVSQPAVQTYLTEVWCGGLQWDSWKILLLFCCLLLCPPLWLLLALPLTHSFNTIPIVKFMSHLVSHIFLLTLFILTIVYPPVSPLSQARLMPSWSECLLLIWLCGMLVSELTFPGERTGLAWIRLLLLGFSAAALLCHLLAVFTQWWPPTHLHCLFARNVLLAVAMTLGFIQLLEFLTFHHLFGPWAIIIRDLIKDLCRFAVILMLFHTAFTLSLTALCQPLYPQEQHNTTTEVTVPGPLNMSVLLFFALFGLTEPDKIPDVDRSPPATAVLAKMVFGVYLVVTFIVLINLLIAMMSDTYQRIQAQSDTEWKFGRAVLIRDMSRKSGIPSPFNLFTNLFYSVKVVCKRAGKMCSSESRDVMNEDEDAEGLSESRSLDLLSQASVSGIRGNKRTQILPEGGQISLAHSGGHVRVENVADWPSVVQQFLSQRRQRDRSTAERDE

Mucolipin-3 = biological target: T3, Mucolipin-3 (Homo sapiens, UniProt Q8TDD5); test: Dose response cell-based high-throughput screening assay for agonists of the transient receptor potential channel ML3 (TRPML3). [Related pubchem assays: 1526, 1424, 1448 ]; format: functional
T3 sequence (Q8TDD5 whole entry): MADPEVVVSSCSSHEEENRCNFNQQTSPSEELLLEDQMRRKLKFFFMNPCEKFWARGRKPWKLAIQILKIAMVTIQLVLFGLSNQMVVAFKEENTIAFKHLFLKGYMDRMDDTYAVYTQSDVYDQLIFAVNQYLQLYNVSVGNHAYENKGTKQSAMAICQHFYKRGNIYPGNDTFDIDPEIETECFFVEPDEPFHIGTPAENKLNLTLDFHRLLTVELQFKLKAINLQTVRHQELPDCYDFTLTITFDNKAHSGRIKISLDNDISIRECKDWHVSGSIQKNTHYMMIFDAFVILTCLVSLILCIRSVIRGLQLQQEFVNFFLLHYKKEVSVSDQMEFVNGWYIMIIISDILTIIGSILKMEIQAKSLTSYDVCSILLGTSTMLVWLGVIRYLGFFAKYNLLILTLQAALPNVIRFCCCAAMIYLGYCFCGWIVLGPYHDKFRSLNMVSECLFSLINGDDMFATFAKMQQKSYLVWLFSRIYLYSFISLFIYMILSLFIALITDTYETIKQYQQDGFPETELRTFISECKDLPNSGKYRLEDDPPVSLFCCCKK

[10] = biological target: Mothers against decapentaplegic homolog 3 (Homo sapiens, UniProt P84022); test: SMAD3 transcription factor inhibitors, dose response (AID 715); format: functional
[11] = LGR2 antagonists, dose response, cell-based, HEK293, CRE-luciferase reporter, cherry pick, set 2 (AID 743343); format: functional;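 also: transfected cells were stimulated with diluted bursicon conditioned medium after compound addition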
[12] = Luminescence-based counterscreen assay for KLF5 inhibitors: dose response cell-based high throughput screening assay to identify cytotoxic compounds using the IEC-6 intestinal epithelial cell line. [Related pubchem assays: 1700 (Primary screen.), 1834 (Confirmation screen.), 1858 (Summary AID.), 1905 (Counterscreen.)]; format: functional
[13] = A549 cell cytotoxicity, dose response, cytotoxicity control, plate reader, cherry-pick, antagonist series (AID 743412); format: functional, cell-based
[14] = MC4R antagonists, dose response, counter-screen for LGR2 antagonist project, cell-based, plate reader, cherry pick (AID 743444); format: functional;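 also: transfected HEK 293 cells stimulated with alpha-MSH peptide; potency of inhibitors of the alpha-MSH evoked signal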
[15] = HepG2 cell cytotoxicity, dose response, cytotoxicity control, plate reader, cherry-pick, antagonist series (AID 743416); format: functional, cell-based
[16] = biological target: T4, Neuropeptide Y receptor type 2 (Homo sapiens, UniProt P49146); test: NPY-Y2 antagonist potency, selectivity check, dose response, counter-screen for NPY-Y1 antagonist project, cell-based (AID 1278); format: functional
T4 sequence (P49146 whole entry): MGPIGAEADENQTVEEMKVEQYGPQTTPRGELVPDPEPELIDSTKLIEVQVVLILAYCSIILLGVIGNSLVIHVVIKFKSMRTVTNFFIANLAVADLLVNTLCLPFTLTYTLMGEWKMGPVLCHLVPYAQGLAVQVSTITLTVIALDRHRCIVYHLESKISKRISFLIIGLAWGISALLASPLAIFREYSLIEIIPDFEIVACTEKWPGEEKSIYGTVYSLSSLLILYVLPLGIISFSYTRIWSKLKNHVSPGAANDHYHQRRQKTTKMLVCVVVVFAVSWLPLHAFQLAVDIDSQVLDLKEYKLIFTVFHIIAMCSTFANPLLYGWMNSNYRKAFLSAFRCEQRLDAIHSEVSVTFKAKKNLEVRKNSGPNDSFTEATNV

[17] = biological target: T5, Neuropeptide Y receptor type 1 (Homo sapiens, UniProt P25929); test: NPY-Y1 receptor antagonist potency, dose response, cell-based (AID 1277); format: functional
T5 sequence (P25929 whole entry): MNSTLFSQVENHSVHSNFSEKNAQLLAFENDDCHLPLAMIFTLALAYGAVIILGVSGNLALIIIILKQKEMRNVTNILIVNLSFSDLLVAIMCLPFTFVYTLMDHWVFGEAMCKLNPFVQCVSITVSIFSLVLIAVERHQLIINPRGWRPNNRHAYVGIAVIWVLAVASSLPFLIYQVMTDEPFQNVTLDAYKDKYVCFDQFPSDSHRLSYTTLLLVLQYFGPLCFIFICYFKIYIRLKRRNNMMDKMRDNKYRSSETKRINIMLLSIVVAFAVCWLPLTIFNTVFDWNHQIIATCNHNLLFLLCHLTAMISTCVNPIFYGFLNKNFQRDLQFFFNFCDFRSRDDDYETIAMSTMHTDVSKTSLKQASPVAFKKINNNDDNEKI

NS3 = NS3 (Hepatitis C virus, UniProt A3EZJ3); test: PubChem AID 2173; set-up: species or system Hepacivirus hominis
Sequence of NS3 (A3EZJ3 whole entry): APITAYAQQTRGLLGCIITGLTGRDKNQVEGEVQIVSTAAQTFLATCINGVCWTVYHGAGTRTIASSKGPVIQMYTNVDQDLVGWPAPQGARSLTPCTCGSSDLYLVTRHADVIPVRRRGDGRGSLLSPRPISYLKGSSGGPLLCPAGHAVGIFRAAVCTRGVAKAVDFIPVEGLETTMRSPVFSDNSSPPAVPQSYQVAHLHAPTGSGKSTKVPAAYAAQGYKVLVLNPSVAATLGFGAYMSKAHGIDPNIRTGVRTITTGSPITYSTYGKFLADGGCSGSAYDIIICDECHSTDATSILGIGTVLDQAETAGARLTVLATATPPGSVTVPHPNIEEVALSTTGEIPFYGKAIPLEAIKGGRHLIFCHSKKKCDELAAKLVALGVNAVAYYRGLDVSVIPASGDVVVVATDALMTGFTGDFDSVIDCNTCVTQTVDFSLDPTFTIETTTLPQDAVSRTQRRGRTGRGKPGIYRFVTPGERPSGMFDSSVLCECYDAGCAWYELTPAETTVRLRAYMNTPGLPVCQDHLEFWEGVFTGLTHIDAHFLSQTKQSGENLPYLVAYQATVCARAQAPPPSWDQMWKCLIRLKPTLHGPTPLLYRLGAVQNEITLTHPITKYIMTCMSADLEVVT

Large T antigen = Large T antigen (Simian virus 40, UniProt P03070); format: functional, Betapolyomavirus macacae;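 also: Confirmatory-stage PubChem screen for compounds that inhibit SV40 T antigen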
Sequence of Large T antigen (P03070 whole entry): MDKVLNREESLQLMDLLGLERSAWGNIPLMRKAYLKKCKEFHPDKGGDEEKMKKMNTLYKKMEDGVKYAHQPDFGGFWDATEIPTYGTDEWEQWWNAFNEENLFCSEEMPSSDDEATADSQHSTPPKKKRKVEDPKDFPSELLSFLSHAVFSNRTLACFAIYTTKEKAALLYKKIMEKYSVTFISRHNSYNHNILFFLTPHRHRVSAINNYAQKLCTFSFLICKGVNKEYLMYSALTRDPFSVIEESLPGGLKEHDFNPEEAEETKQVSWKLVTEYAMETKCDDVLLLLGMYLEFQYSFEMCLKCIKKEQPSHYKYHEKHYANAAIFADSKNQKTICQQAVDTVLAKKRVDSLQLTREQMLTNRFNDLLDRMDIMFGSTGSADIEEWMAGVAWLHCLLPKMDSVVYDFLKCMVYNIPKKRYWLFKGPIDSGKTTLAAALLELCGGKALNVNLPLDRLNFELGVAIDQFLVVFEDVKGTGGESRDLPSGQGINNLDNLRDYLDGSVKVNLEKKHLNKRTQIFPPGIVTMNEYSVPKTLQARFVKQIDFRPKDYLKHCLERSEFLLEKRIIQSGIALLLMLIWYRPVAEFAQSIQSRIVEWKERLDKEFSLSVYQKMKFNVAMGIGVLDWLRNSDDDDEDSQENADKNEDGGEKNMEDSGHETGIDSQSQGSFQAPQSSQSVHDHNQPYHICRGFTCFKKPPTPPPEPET

Bcl-2-like protein 10 = Bcl-2-like protein 10 (Homo sapiens, UniProt Q9HD36); test: Biochemical TR3 FP assay of Bcl-B inhibitor potency, EC50 (AID 1243); format: functional
Sequence of Bcl-2-like protein 10 (Q9HD36 whole entry): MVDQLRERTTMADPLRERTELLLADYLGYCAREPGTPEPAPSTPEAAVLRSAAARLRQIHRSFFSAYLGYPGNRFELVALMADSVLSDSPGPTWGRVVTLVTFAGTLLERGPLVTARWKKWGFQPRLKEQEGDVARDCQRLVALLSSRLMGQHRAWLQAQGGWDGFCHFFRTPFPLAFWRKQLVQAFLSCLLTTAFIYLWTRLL

Sequence of Glyceraldehyde-3-phosphate dehydrogenase (P04406 whole entry): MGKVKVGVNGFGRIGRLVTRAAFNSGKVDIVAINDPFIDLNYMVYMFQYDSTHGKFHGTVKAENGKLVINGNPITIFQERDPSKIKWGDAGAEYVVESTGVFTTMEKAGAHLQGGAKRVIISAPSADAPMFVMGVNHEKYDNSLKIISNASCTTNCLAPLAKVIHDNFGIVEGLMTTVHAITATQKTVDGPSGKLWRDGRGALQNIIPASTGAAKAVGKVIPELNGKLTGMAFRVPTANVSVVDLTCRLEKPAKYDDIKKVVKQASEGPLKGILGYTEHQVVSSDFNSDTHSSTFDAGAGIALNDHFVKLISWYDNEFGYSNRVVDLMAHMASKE
Sequence of Bcl-2-like protein 1 (Q07817 whole entry): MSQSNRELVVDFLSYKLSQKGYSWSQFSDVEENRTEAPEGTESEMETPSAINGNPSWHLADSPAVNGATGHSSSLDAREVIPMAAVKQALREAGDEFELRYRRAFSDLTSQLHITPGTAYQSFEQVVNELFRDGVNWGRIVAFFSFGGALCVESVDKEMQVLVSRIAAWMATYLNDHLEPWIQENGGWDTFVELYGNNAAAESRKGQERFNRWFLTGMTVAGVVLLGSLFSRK

CCCCCC#CCC#CCC#CCC#CCCCC(=O)O
IC50 [1]: > 100 µM (not active)
IC50 (Bcl-2-like protein 1): > 109 µM (not active)
IC50 [2]: 0.832 µM (active)
IC50 (Genome polyprotein): 46.3 µM (not active)
IC50 [3]: 15.4 µM (active)
IC50 [4]: 32.1 µM (inactive)
IC50 [5]: 25.1 µM (active)
IC50 [6]: 0.441 µM (active)
IC50 [7]: 30.4 µM (active)

Cc1cccc2nc(-c3cccc(NC(=O)Cc4ccccc4)c3)cn12
IC50 (cells): 29.7 µM (active)
CC50 [8]: 42.8 µM (active)

Cc1cc(C(=O)CSc2nc[nH]n2)c(C)n1Cc1ccccc1
EC50 [9]: > 30 µM (not active)

CC(c1ccccc1)C1CC(=O)N(C2CCCCC2)C1=O (stereo not given)
EC50 (Ion channel NompC): > 29.9 µM (not active)
EC50 (Mucolipin-3): 4.1 µM (active)
IC50 [10]: 125 µM (inconclusive)

COc1ccc(Cl)cc1C(=O)Nc1nc2ccccc2[nH]1
AC50 [11]: 2.05 µM (active)
IC50 [12]: > 39.8 µM (not active)
AC50 [13]: > 52 µM (inactive)
AC50 [14]: 2.46 µM (active)
AC50 [15]: > 52 µM (inactive)

CCCCNC(=O)c1onc(CSc2ccc(Cl)cc2)c1C(=O)O
IC50 [16]: 9.93 µM (active)
IC50 [17]: 16.8 µM (not active)

O=C1NC(=O)N(c2ccccc2)C(=O)/C1=C\c1ccc([N+](=O)[O-])s1
IC50 (NS3): 15.7 µM (not active)
IC50 (Large T antigen): 42.1 µM (active)

CCSc1nc(NN)c2c3c(sc2n1)CN(C)CC3
EC50 (Bcl-2-like protein 10): 7.43 µM (active)
